Experimental data as given in patent publication US10343991B2, “C5, C6 substituted and/or fused oxindoles as anti-cancer agents and process for preparation thereof” (Council of Scientific & Industrial Research, priority 2016, dated 2019).

What was measured:
THP1 cells [1] = assay: Trypan blue assay, cell viability; format: cell-based; settings: Homo sapiens, THP-1, 48 h, average of three experiments
Procedure: (§1) In order to determine the anticancer potency, the synthesized oxindole derivatives were evaluated for anti-cancer activity various different human cancer cell lines, Leukemic Cancer (THP1), human breast cancer (MDA-MB-231 and MCF-7), human cervix carcinoma cells (HeLa), prostate cancer (DU-145) cellS by using standard Trypan blue and SRB assays. The preliminary anticancer activity for all the synthesized compounds was done at 10 μM concentration and cell inhibition was determined. […] The experiment was repeated thrice and the average values were taken.
The assay was carried out in a 24 well flat-bottomed microtiter tissue culture plate. THP1 cells were seeded in the plates with a density of 4×10^4 cells/well (counted by tryphan blue exclusion dye method). Compounds were added to obtain a concentration of 10 μM. Sunitinib was used as positive control. Plates were incubated for 48 h at 37° C. in a humidified incubator with 5% CO2. At the end of the treatments, cells (THP1) were resuspended in 0.4% trypan blue and percent cell viability was counted using countess cell chamber (Life Technologies).

THP1 cells [2] = format: cell-based, human; settings: THP-1 cells, 10 μM, 24 h; untreated cells 68.3%
Procedure: To understand the anticancer activity mechanism of the synthesized oxindole derivatives, we analysed the cell cycle alteration phase distribution of the cells by treating THP1 cells with oxindole derivatives at 10 μM, for 24 h and analyzed by flow cytometry. Treatment of THP-1 cells with compounds 2b, 3d, 3e, 3g, 3h, 3i, 3j and 3k caused an accumulation of 98.5%, 94.3%, 96.7%, 97%, 98%, 83%, 93.5%, 98.1% cells in the G0/G1 phase respectively as compared to 68.3% in untreated cells and 99.5% in Sunitinib treated cells. […] (Fig. x and Table .y).
The THP1 cells were treated with the active compounds at […] and incubated for about 24 h. The cells were fixed in ice cold ethanol solvent at 4° C. for about 30 minutes. The ethanol was removed and cells were treated with 1 mL of DNA staining solution (2 mg of RNase and 0.2 mg of propidium iodide (PI)) for 30 minutes. The DNA content was measured by flow cytometry (BD FACS C anto II). Results were analysed using FCS express 4 plus software.

[3] = tested on: VEGF tyrosin kinase (VEGFR); assay: VEGFR activity, phosphotyrosine (PY) cell-based ELISA; settings: 10 μM, 60 min pretreatment, VEGF stimulation
Procedure: Briefly, cells at 60-75% confluence were placed in serum-free medium for 18 h to reduce the background of phosphorylation. Cells were then pretreated for 60 min with 2b, 3d, 3e, 3g, 3h, 3i, 3j and 3k compounds at 10 μM concentration followed by an optimized dose of purified growth factor (VEGF). The reaction was stopped, and cells were permeabilized by quickly removing the media from the cells and adding ice-cold Tris-buffered saline (TBS) containing 0.05% triton X-100, protease inhibitor cocktail, and tyrosine phosphatase inhibitor cocktail (both from Sigma Chemical). The TBS solution was then removed, and cells were fixed to the plate by heat and further incubation in 70% ethanol. Cells were further exposed to block (TBS with 1% BSA) and washed, and then a horseradish peroxidase (HRP)-conjugated phosphotyrosine antibody was added. The antibody was removed; cells were washed again and exposed to an enhanced luminol ELISA substrate, and light emission was measured using a plate reader. The known RTK-specific kinase inhibitor (Sunitinib) was used as positive control for kinase inhibition.

DU-145 cells = assay: SRB assay, cell viability; format: cell-based; settings: Homo sapiens, 48 h, average of three experiments, read-out: DU145 Cell Viability at 10 μM
Procedure: as §1
(§2) The assay was carried out in a 24 well flat-bottomed microtiter tissue culture plate. Cells were seeded in the plates with a density of 4×10^4 cells/well (counted by tryphan blue exclusion dye method). After 24 hours media was replaced with fresh media and then compounds were added to obtain a concentrations of 10 μM. Sunitinib was used as positive control. Plates were incubated for 48 h at 37° C. in a humidified incubator with 5% CO2. After 48 hours without removing the cell culture supernatant, 500 μl of cold 10% (wt/vol) TCA was added to each well, and the plates were incubated at 4° C. for 1 h. The plates were washed for four times with water then rinsed with water several times to remove TCA, serum, proteins and excess water was removed using paper towels and air dried. 100 μl of 0.4% (wt/vol in 1% acetic acid) SRB solution was added to each well. Plates were left at room temperature for 30 min and then the plates were quickly rinsed for four times with 1% (vol/vol) acetic acid to remove unbound dye were and then air dried until no moisture was visible. 100 μl of 10 mM Tris base solution (pH 10.5) was added to each well and shake for 5 min to solubilize the protein-bound dye. Optical density was measured at 564 nm in a micro plate reader.

MDA-MB-231 cells = assay: SRB assay, cell viability; format: cell-based; settings: Homo sapiens, 48 h, average of three experiments
Procedure: as §1, §2

HeLa cells = assay: SRB assay, cell viability; format: cell-based; settings: Homo sapiens, 48 h, average of three experiments
Procedure: as §1, §2

MCF-7 cells = assay: SRB assay, cell viability; format: cell-based; settings: Homo sapiens, MCF7, 48 h, average of three experiments
Procedure: as §1, §2

SMILES	viability at 10 µM (THP1 cells [1])	accumulation of cells in the G0/G1 phase (THP1 cells [2])	inhibitory activity of VEGF tyrosin kinase activity [3]	viability at 10 µM (DU-145 cells)	viability at 10 µM (MDA-MB-231 cells)	viability at 10 µM (HeLa cells)	viability at 10 µM (MCF-7 cells)	melting point
Cc1ccsc1/C=C1\C(=O)Nc2cc3oc(Cc4ccccc4)c(-c4ccccc4)c3cc21 [Compound 3i, (Z)-2-benzyl-5-((3-methylthiophen-2-yl)methylene)-3-phenyl-5H-furo[3,2-f]indol-6(7H)-one]	41.2%	83%	inhibitory activity	52%	43.2%	42.6%	31.4%	165 to 168 °C
CN(C)c1ccc(/C=C2\C(=O)Nc3cc4oc(Cc5ccccc5)c(-c5ccccc5)c4cc32)c2ccccc12 [Compound 3j, (Z)-2-benzyl-5-((4-(dimethylamino)naphthalen-1-yl)methylene)-3-phenyl-5H-furo[3,2-f]indol-6(7H)-one]	83.3%	93.5%	inhibitory activity	45.2%	71.3%	107%	37.8%	241 to 245 °C
